The values below come from patent US9643977B2, “Necroptosis inhibitors and methods of use therefor” (President and Fellows of Harvard College, priority 2011, dated 2017).

Where a SMILES comes first, the peptide text is derived from it. The star is where a group is joined. Cbz = O=C(OCc1ccccc1)*; CH2F = FC*

Assay [1] concerns TNFα production in J774 cells. Kind of assay: TNFα ELISA, J774 cells treated with zVAD.fmk (cell lysate and supernatant). The assay is classed as cell-based, murine. Conditions: FIG. 1. The procedure:
The role of RIP1 kinase in the regulation of TNFα induction was investigated. zVAD.fmk is a caspase inhibitor that induces TNFα expression in various cell types. Murine macrophage J774 cells were treated with 20 μM zVAD.fmk and 10 μM of necrostatin and RIP1 inhibitor Nec-1 for the various periods of time. Cell lysates were extracted and analyzed by TNFα specific ELISA. As depicted in FIG. 1, treatment with zVAD.fmk induces an upregulation in TNFα protein levels as measured by ELISA in the cell lysate.

The test system of assay [2] is L929 cells. Kind of assay: Cell viability by ATP assay, L929 cells treated with Smac mimetic SM-164. The class given is cell-based. The procedure: (§1) Smac mimetic compounds are IAP antagonists that induce the production of TNFα. Smac mimetic compounds induce the autoubiquitination and degradation of cIAP1. […] This cell death was inhibited by treatment with 10 μM Nec-1, or with 0.2 μg/ml or 1.0 μg/ml of TNFα neutralizing antibody (FIG. 2A).

In assay [3] the test system is TNFα production in L929 cells. Briefly: TNFα ELISA on cell lysates, L929 cells treated with SM-164. The class given is cell-based. The protocol:
as §1
(An ELISA detects its analyte on a solid surface through an enzyme-linked reagent.)

Assay [4] has as its system L929 cells. Kind of assay: Cell survival by CellTiter-Glo, L929 cells treated with CD154 and/or IFNγ. Conditions: 10 μM, 32 hrs, CD154 0.1 μg/ml, FIG. 5. The class given is cell-based. The procedure:
To test the involvement of CD40 in necroptosis, L929 cells were treated with CD154 (0.1 μg/ml), IFNγ (100 U/ml) and/or TNFα neutralizing antibody (1 μg/ml) alone or in combination and with or without Nec-1 (10 μM) for 32 hrs. Following treatment, cell survival was determined by CellTiter-Glo (Promega). As depicted in FIG. 5, the death of L929 cells induced by either the presence of either CD154 alone or by the presence of both CD154 and IFNγ was inhibited by Nec-1. Thus, RIP1 kinase selectively mediates intracellular signaling downstream of CD40 stimulation

Assay [5] relates to L929 cells. Kind of assay: Cell viability by ATP assay, L929 cells transfected with Traf2 siRNA. The class given is cell-based. Conditions: 10 μM, 48 hours, FIG. 3A. The procedure:
(§2) In the TNFα signaling pathway, cIAP1, the target of Smac mimetic compounds, interacts closely with another protein, Traf2. L929 cells were transfected with Traf2 siRNA, treated with 10 μM Nec-1 or 1.0 μg/ml anti-TNFα antibody for 48 hours and cell viability measured by ATP assay. […] This death was also dependent on TNFα production, as it was inhibited by treatment with a TNFα neutralizing antibody or with knockdown of TNFR1 (FIGS. 3A and 3B). […] One such treatment is lipopolysaccharide (LPS), a component of the bacterial outer membrane. […] However, treatment of such cells with 10 μM Nec-1 has no effect on TNFα production in this case (FIG. 4).

Assay [6] concerns L929 cells. Briefly: Viability by ATP luminescence assay, L929 cells treated with CD40L and IFNγ. The assay is classed as cell-based. Conditions: 10 μM, 24 hours, 0.2 μg/ml CD40L, 100 U/ml IFNγ, FIG. 13A. The procedure: (§3) A, L929 cells were treated with 0.2 μg/ml CD40L, 100 U/ml IFNγ, and/or 1 μg/ml TNFα neutralizing antibody and then treated with 10 μM Nec-1 (right bar) or a DMSO control (left bar) for 24 hours. Viability was measure by ATP luminescence assay. B, BV-2 cells were pretreated with 100 U/ml IFNγ for 20 hours, and treated with 0.1 μg/ml CD40L for 4 or 8 hours. TNFα secretion was measured by ELISA.
The role of RIP1 in CD40L induced TNFα production was investigated.

Assay [7] relates to microglia primary cultures. Kind of assay: Cell survival by CellTiter-Glo, microglia primary cultures treated with Aβ42. The class given is cell-based. As to conditions: Aβ42 200 nM, FIG. 10C. The procedure:
(§4) The levels of TNFα mRNA were measured by quantitative PCR. B) Microglia primary cultures were incubated for 30 minutes with or without 10 μM Nec-1 prior to being treated with Aβ42 (200 nM). TNFα secretion was measured by ELISA. The data correspond to the mean±SD (N=3). C) Cell survival of microglia primary cultures treated with Aβ42 (200 nM) for indicated times with and without Nec1 was measured by CellTiter-Glo® assay. Error bars represent the mean of two different experiments.
(§5) The role played by RIP1 in the induction of TNFα production by amyloid-β in microglial cells was investigated.
Background: Cellular ATP, detected with luciferase, serves as a proxy for viable cell number.

Assay [8] relates to TNFα secretion by microglia primary cultures. Briefly: TNFα ELISA, microglia primary cultures treated with Aβ42. The assay is classed as cell-based. As to conditions: 10 μM, 30 minutes before Aβ42 200 nM, FIG. 10B. The procedure: as §4, §5
For assay [9], the system named is TNFα production in BV2 cells. Briefly: TNFα mRNA by quantitative PCR, BV2 cells treated with Aβ42. As to conditions: 10 μM, 30 minutes before Aβ42 200 nM, FIG. 10A. The class given is cell-based. The protocol:
as §4, §5

The subject of assay [10] is TNFα secretion by BV-2 cells. Kind of assay: TNFα ELISA, BV-2 cells pretreated with IFNγ and treated with CD40L. The assay is classed as cell-based. As to conditions: 100 U/ml IFNγ 20 hours, 0.1 μg/ml CD40L 4 or 8 hours, FIG. 13B. The protocol:
as §3
To confirm the role of RIP1 in CD40L-induced TNFα production, BV-2 cells were pretreated with IFNγ and CD40L to induce TNFα production and then exposed to Nec-1.

Assay [11] concerns TNFα production in J774 cells. Briefly: TNFα ELISA, J774 cells treated with LPS. The assay is classed as cell-based, murine. As to conditions: 10 μM, J774 cells with 1 μg/ml LPS, cell lysate, FIG. 4. The protocol: as §2
Assay [12] concerns TNFα secretion by splenic macrophages. Kind of assay: TNFα ELISA, splenic macrophages stimulated by CD154 and IFNγ. The assay is classed as cell-based, C57BL/6 mouse. As to conditions: 10 μM, pretreated 1 hour, then 24 hours 1 μg/ml CD154 and 100 U/ml IFNγ, FIG. 6. The protocol: To further explore the role of RIP1 kinase in mediating CD40 signaling, the effect of necrostatins on the production of TNFα by primary macrophages stimulated by CD154 was tested. Splenocytes isolated from a C57BL/6 mouse were cultured for 10 days in RPMI media with 10% FBS and 50 μM 2-mercaptoethanol. The attached cells were harvested as splenic macrophages. The macrophages were pretreated for 1 hour with 10 μ[…] Nec-1, 10 μM Nec-21, 10 μM Nec-29, or 1 μM Nec-12, then treated for 24 hours with 1 μg/ml recombinant CD154 (CD40L, R&D Systems) and/or 100 U/ml IFNγ as. TNFα secretion in the cell culture supernatant was analyzed by ELISA assay. As depicted in FIG. 6, the production of TNFα in splenic macrophages stimulated by CD154 in the presence of IFNγ was inhibited by Nec-1 as well as by the three other necrostatins tested, Nec-12, Nec-21 and Nec-29. These experiments indicate that RIP1 is involved in mediating TNFα production downstream of CD40 activation.

As to `COC(=O)C[C@H](NC(=O)[C@H](C)NC(=O)[C@@H](NC(=O)OCc1ccccc1)C(C)C)C(=O)CF` [zVAD.fmk, reference compound] (Cbz-Val-Ala-Asp(OMe)-CH2F), the “TNFα protein levels after treatment” value in assay [1] (20 μM zVAD.fmk, ELISA in cell lysate) is recorded as “upregulation”.

On to `CN[C@@H](C)C(=O)N[C@H]1CCCC[C@H]2CC[C@@H](C(=O)N[C@@H](c3ccccc3)c3cn(CCCCc4ccc(CCCCn5cc([C@@H](NC(=O)[C@@H]6CC[C@@H]7CCCC[C@H](NC(=O)[C@H](C)NC)C(=O)N76)c6ccccc6)nn5)cc4)nn3)N2C1=O` [SM-164, reference compound], for which the “cell death induced by treatment” value in the assay on L929 cells [2] (100 nM, L929 cells, ATP assay) is “undergo cell death”. Also, the “TNFα production after treatment” value in [3] (SM-164 treatment, ELISA on cell lysates) is on record as “induced an increase”.

Turning to `CN1C(=O)C(Cc2c[nH]c3ccccc23)NC1=S` (stereo not shown) [Nec-1], the “inhibition of cell death induced by CD154 alone” value in the assay on L929 cells [4] was “inhibited”. In the assay on L929 cells [4] (IFNγ 100 U/ml), the “inhibition of cell death induced by both CD154 and IFNγ” value was “inhibited”. In addition, in the assay on L929 cells [5], the “inhibition of cell death induced by loss of Traf2” value is “completely inhibit”. Moreover, in the assay with L929 cells [6], the “viability of cells cultured in IFNγ and CD40L” value was “largely restored”. For the same compound, in the assay on L929 cells [2] (10 μM, L929 cells with 100 nM SM-164, FIG. 2A), the “inhibition of SM-164-induced cell death” value was “inhibited”. Also, the “effect on survival of microglia primary cells” value in [7] is given as “minor protective effect”. The “levels of TNFα (secretion) after Aβ42 exposure” value in assay [8] is on record as “reduced levels of TNFα”. Also, in [9], the “levels of TNFα (mRNA) after Aβ42 exposure” value is on record as “reduced levels of TNFα”. Also, in assay [10], the “inhibition of CD40L-induced TNFα production” value is reported as “significantly inhibited”. Moreover, in assay [11], the “effect on LPS-induced TNFα production” value was “no effect”. The “inhibition of zVAD.fmk-induced production of TNFα” value in assay [1] (10 μM co-treatment with 20 μM zVAD.fmk) is listed as “almost completely inhibits”. Also, the “inhibition of TNFα production stimulated by CD154 in the presence of IFNγ” value in [12] is on record as “inhibited”. Besides, in assay [3] (co-treatment, FIG. 2B), the “inhibition of SM-164-induced TNFα production” value is “completely inhibited”.
